Source: patent US11912701B2, “Protein kinase inhibitors for promoting liver regeneration or reducing or preventing hepatocyte death” (HEPAREGENIX GMBH, priority 2018, dated 2024)

Experiments:
MKK7 [1] = biological target: T1, MKK7 (Homo sapiens, UniProt O14733); assay: KINOMEscan competition binding assay, MKK7; parameters: M1/R419; host or cells: HEK-293; settings: ratio PoC (off-target)/PoC (MKK4)
T1 sequence (O14733 1-419): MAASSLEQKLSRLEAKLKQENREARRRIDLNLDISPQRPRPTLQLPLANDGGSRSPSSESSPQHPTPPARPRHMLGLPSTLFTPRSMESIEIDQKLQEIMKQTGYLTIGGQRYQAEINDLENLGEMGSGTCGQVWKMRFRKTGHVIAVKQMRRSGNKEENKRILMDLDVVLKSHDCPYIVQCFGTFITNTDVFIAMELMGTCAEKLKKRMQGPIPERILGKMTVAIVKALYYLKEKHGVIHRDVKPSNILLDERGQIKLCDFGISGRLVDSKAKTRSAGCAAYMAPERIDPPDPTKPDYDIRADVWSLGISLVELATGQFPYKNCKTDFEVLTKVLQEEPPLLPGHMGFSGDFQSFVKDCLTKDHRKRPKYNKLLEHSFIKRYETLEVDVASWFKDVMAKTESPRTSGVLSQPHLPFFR
How it was run: (§1)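 DNA-tagged kinases expressed in HEK-293 cells compete between immobilized ligand on blocked beads and test compound at 100 nM; kinase retained on beads quantified by qPCR of the tag.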

MKK4 [2] = biological target: T2, MKK4 (Homo sapiens, UniProt P45985); assay: KINOMEscan competition binding assay, MKK4; settings: residual percent of control binding (PoC) at 100 nM
T2 construct: S84/D399; host or cells: HEK-293
T2 sequence (P45985 84-399): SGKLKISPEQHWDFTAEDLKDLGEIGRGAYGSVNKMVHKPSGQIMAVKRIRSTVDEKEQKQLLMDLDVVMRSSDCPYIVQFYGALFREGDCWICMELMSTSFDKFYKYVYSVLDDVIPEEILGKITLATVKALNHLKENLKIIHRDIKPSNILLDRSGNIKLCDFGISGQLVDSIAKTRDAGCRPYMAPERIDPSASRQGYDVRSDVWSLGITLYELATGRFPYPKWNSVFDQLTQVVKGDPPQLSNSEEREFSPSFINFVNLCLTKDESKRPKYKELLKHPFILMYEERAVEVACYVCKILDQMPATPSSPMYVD
How it was run: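 KINOMEscan competition of compound versus immobilized ligand for DNA-tagged MKK4 expressed in HEK-293 cells. Bound kinase was quantified by qPCR after elution.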

MKK7 [3] = biological target: T1, MKK7; assay: 33PanQinase enzyme assay, MKK7; assay type: biochemical; parameters: purchased ProQinase GmbH, Freiburg, Germany (33PanQinase Assay Service); settings: ratio IC50(MKK7)/IC50(MKK4)
How it was run: (§2)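 Radiometric 33PanQinase format: kinase with substrate, ATP and compound (added in 10% DMSO stock) incubated 60 min at 30° C, stopped with 2% H3PO4, ^33Pi incorporation counted by scintillation. Single-concentration data given as % residual activity; IC50 by least-squares fit, with selectivity as IC50(off-target)/IC50(MKK4).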

BRaf = biological target: T3, BRaf (Homo sapiens, UniProt P15056); assay: KINOMEscan competition binding assay, BRaf; settings: ratio PoC (off-target)/PoC (MKK4)
T3 construct: purchased ProQinase GmbH, Freiburg, Germany (33PanQinase Assay Service)
How it was run: as §1

MKK4 [4] = biological target: T4, MKK4 (Homo sapiens, UniProt P45985); assay: 33PanQinase enzyme assay, MKK4; assay type: biochemical; settings: for IC50: assay 'IC50', read-out: Potency MKK4 (IC50); for remaining activity at 0.1 µM: single concentration 100 nM, read-out: Potency MKK4 (residual activity, assay at single concentration)
T4 construct: purchased ProQinase GmbH, Freiburg, Germany (33PanQinase Assay Service)
T4 sequence (P45985 1-399): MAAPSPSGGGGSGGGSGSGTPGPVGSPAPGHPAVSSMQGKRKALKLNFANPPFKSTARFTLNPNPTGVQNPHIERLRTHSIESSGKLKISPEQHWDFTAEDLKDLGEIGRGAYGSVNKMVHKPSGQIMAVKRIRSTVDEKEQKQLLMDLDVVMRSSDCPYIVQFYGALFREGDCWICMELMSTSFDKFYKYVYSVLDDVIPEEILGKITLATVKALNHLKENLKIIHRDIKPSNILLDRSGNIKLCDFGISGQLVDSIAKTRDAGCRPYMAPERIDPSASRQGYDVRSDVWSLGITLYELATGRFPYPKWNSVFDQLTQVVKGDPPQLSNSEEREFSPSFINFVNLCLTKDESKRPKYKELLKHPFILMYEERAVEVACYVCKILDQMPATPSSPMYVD
How it was run: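 Radiometric 33PanQinase assay: kinase, substrate, ATP and compound in standard buffer, 60 min at 30 °C; 33Pi incorporation read by scintillation counting.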

JNK1 [5] = biological target: T5, JNK1 (Homo sapiens, UniProt P45983); assay: KINOMEscan competition binding assay, JNK1; parameters: M1/Q384; host or cells: HEK-293; settings: ratio PoC (off-target)/PoC (MKK4)
How it was run: as §1
Target sequence in this assay (P45983 1-384 isoform P45983-2): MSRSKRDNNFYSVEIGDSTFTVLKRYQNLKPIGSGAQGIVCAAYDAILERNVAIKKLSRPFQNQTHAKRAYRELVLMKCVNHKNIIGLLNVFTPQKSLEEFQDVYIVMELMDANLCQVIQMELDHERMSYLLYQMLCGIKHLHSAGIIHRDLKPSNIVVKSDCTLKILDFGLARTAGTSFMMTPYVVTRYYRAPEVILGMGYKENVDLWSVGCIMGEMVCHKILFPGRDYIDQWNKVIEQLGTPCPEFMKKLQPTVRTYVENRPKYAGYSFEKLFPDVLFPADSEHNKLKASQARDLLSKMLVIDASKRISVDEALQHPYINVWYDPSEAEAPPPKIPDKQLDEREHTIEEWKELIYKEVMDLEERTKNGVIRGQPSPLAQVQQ

JNK1 [6] = biological target: T5, JNK1; assay: 33PanQinase enzyme assay, JNK1; assay type: biochemical; parameters: purchased ProQinase GmbH, Freiburg, Germany (33PanQinase Assay Service); settings: ratio IC50(JNK1)/IC50(MKK4)
How it was run: as §2
Target sequence in this assay (P45983 whole entry): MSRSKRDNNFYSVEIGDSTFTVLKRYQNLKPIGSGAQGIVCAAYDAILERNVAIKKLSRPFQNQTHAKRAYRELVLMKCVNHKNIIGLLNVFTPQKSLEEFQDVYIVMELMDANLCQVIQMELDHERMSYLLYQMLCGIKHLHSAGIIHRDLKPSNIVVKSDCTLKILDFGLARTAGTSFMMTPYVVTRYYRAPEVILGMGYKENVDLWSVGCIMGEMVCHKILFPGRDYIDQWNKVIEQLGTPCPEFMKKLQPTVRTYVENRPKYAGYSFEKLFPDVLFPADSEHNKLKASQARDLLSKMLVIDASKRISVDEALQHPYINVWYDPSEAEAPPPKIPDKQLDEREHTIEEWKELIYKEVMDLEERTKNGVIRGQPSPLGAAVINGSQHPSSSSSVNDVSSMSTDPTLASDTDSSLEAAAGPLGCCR

T3 sequence (P15056 whole entry, species assumed): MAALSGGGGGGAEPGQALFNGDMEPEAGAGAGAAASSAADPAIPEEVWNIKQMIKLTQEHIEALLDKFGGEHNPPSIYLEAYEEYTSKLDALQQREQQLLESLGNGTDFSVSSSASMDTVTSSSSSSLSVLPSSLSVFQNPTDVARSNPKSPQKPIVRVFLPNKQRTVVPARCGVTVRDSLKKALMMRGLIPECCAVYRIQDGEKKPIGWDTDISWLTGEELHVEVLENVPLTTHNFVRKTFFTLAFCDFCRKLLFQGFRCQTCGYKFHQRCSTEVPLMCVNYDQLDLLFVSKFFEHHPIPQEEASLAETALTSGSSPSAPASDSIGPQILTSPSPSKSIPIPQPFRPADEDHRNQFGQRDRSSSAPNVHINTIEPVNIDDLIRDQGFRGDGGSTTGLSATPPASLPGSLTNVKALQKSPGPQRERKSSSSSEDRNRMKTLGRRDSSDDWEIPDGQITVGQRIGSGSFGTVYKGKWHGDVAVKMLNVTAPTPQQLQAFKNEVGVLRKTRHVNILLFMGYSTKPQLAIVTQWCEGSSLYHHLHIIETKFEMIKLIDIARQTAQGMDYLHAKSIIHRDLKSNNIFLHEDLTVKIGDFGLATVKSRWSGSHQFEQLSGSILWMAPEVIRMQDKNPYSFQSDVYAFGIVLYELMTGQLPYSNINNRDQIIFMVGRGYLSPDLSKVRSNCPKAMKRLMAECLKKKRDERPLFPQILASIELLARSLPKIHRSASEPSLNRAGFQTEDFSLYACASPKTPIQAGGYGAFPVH

Row | SMILES | selectivity based on % Ctrl @100 nM vs. MKK7 (MKK7 [1]) | MKK4 [% Ctrl @ 100 nM (MKK4 [2]) | Selectivity IVIKK7, IC50(off-target)/IC50(MKK4) (MKK7 [3]) | selectivity based on % Ctrl @100 nM vs. Braf (BRaf) | IC50 (MKK4 [4]) | selectivity based on % Ctrl @100 nM vs. JNK1 (JNK1 [5]) | Selectivity JNK1, IC50(off-target)/IC50(MKK4) (JNK1 [6]) | remaining activity at 0.1 µM (MKK4 [4])
1 | CCCS(=O)(=O)Nc1ccc(F)c(C(=O)c2c[nH]c3ncc(-c4ccn[nH]4)cc23)c1F [Example 84, N-(3-(5-(1H-pyrazol-5-yl)-1H-pyrrolo[2,3-b]pyridine-3-carbonyl)-2,4-difluorophenyl)propane-1-sulfonamide] | +++ (Ratio > 100) | +++ (PoC < 1) | +++ (IC50(off-target)/IC50(MKK4) > 100) | ◯ (3 ≥ Ratio) | 100 to 1000 nM | +++ (Ratio > 100) | ◯ (3 ≥ IC50(off-target)/IC50(MKK4)) | –
2 | CCCS(=O)(=O)Nc1ccc(F)c(C(=O)c2c[nH]c3ncc(C4CCC4)cc23)c1F [Example 123, N-(3-(5-cyclobutyl-1-pyrrolo[2,3-b]pyridine-3-carbonyl)-2,4-difluorophenyl)propane-1-sulfonamide] | +++ (Ratio > 100) | +++ (PoC < 1) | +++ (IC50(off-target)/IC50(MKK4) > 100) | ++ (100 ≥ ratio > 10) | 100 to 1000 nM | +++ (Ratio > 100) | ◯ (3 ≥ IC50(off-target)/IC50(MKK4)) | –
3 | CCCS(=O)(=O)Nc1ccc(F)c(C(=O)c2c[nH]c3ncc(-c4nc[nH]n4)cc23)c1F [Example 85, N-(3-(5-(1H-1,2,4-triazol-3-yl)-1H-pyrrolo[2,3-b]pyridine-3-carbonyl)-2,4-difluorophenyl)propane-1-sulfonamide] | ++ (100 ≥ ratio > 10) | + (3 ≤ PoC < 30) | ++ (100 ≥ IC50(off-target)/IC50(MKK4) > 10) | ◯ (3 ≥ Ratio) | 1000 to 10000 nM | ++ (100 ≥ ratio > 10) | ◯ (3 ≥ IC50(off-target)/IC50(MKK4)) | –
4 | CCCS(=O)(=O)Nc1ccc(F)c(C(=O)c2c[nH]c3ncc(-c4c[nH]c(=O)cn4)cc23)c1F [Example 88, N-(2,4-difluoro-3-(5-(5-oxo-4,5-dihydropyrazin-2-yl)-1H-pyrrolo[2,3-b]pyridine-3-carbonyl)phenyl)propane-1-sulfonamide] | +++ (Ratio > 100) | +++ (PoC < 1) | ++ (100 ≥ IC50(off-target)/IC50(MKK4) > 10) | + (10 ≥ ratio > 3) | 100 to 1000 nM | +++ (Ratio > 100) | ◯ (3 ≥ IC50(off-target)/IC50(MKK4)) | –
5 | CCCS(=O)(=O)Nc1ccc(Br)c(C(=O)c2c[nH]c3ncc(-c4ccc(Cl)cc4)cc23)c1F [Example 60, N-(4-bromo-3-(5-(4-chlorophenyl)-1H-pyrrolo[2,3-b]pyridine-3-carbonyl)-2-fluorophenyl)propane-1-sulfonamide] | ++ (100 ≥ ratio > 10) | + (3 ≤ PoC < 30) | – | ++ (100 ≥ ratio > 10) | 1000 to 10000 nM | ++ (100 ≥ ratio > 10) | – | –
6 | CCCS(=O)(=O)Nc1ccc(F)c(C(=O)c2c[nH]c3ncc(-c4ccc(F)cc4F)cc23)c1F [Example 33, N-(3-(5N-(2,4-difluorophenyl)-1H-pyrrolo[2,3-b]pyridine-3-carbonyl)-2,4-difluorophenyl)propane-1-sulfonamide] | ++ (100 ≥ ratio > 10) | + (3 ≤ PoC < 30) | – | ++ (100 ≥ ratio > 10) | – | ++ (100 ≥ ratio > 10) | – | 70 to 90%
7 | CCCS(=O)(=O)Nc1ccc(C#N)c(C(=O)c2c[nH]c3ncc(-c4ccc(Cl)cc4)cc23)c1F [Example 61, N-(3-(5-(4-chlorophenyl)-1H-pyrrolo[2,3-b]pyridine-3-carbonyl)-4-cyano-2-fluorophenyl)propane-1-sulfonamide] | + (10 ≥ ratio > 3) | ◯ (30 ≤ PoC) | – | ◯ (3 ≥ Ratio) | – | + (10 ≥ ratio > 3) | – | > 90%
8 | CCCS(=O)(=O)Nc1ccc(F)c(C(=O)c2c[nH]c3ncc(-c4ccc5ccoc5c4)cc23)c1F [Example 52] | ++ (100 ≥ ratio > 10) | + (3 ≤ PoC < 30) | – | ◯ (3 ≥ Ratio) | – | ++ (100 ≥ ratio > 10) | – | 70 to 90%
9 | CCCS(=O)(=O)Nc1c(Cl)ccc(C(=O)c2c[nH]c3ncc(-c4ccc(Cl)cc4)cc23)c1F [Example 2d] | + (10 ≥ ratio > 3) | + (3 ≤ PoC < 30) | – | + (10 ≥ ratio > 3) | – | + (10 ≥ ratio > 3) | – | 70 to 90%
10 | CCCS(=O)(=O)Nc1cccc(C(=O)c2c[nH]c3ncc(-c4ccc(Cl)cc4)cc23)c1C#N [Example 63, N-(3-(5-(4-chlorophenyl)-1H-pyrrolo[2,3-b]pyridine-3-carbonyl)-2-cyanophenyl)propane-1-sulfonamide] | ◯ (3 ≥ Ratio) | ◯ (30 ≤ PoC) | – | ◯ (3 ≥ Ratio) | – | ◯ (3 ≥ Ratio) | – | 50 to 70%
